Measured values reported in paper PMC3017812 (Chembiochem : a European journal of chemical biology, 2010).

Molecular target: His-tagged MDM2 (Homo sapiens, UniProt Q00987)
Test: competitive fluorescence polarization binding assay

| fold lower affinity for MDM2 relative to peptide 1 (fluorescence polarization assay, compared with unconstrained peptide 1) | Kd (read-out: KD, binding affinity for MDM2, competitive fluorescence polarization assay, His-tagged MDM2) [µM] | Compound |
| --- | --- | --- |
| seven-fold lower affinity | – | CC(C)C[C@H](NC(=O)[C@H](CC(=O)O)NC(=O)[C@H](CO)NC(=O)[C@H](Cc1ccccc1)N1C/C=C/CCC(=O)N[C@@H](CCC(=O)O)C(=O)N[C@@H](C)C1=O)C(=O)N[C@@H](Cc1c[nH]c2ccccc12)C(=O)N[C@@H](CCCCN)C(=O)N[C@@H](CC(C)C)C(=O)N[C@@H](CC(C)C)C(=O)N1CCC[C@H]1C(=O)N[C@@H](CCC(=O)O)C(=O)N[C@@H](CC(N)=O)C(=O)N[C@@H](CC(N)=O)C(=O)N[C@H](C(N)=O)C(C)C [HBS 2] |
| – | > 125 | HBS 3: negative control of 2, Phe-19 and Leu-26 mutated to alanine (EAASDLWKLAPENNV) |
